Key:
α and αβ (1:1) GluClRs = test: IVM-induced tonic current in heteroculture, α and αβ data pooled; format: cell-based, H. contortus; conditions: continuous 5 nM IVM
Experimental: After validating the heterocultures as a reliable preparation for investigating IPSCs mediated by GluClRs, we made synaptic recordings while continuously applying IVM (5 nM) to cells similarly transfected with α and αβ GluClRs. […] Firstly, there was a steady downward deflection in baseline current over the course of the recording that was not different between cells expressing α (Fig 5A) and αβ (1:1, Fig 5B) GluClRs. […] Changes to the kinetic properties of IPSCs were also observed upon IVM application (Fig 5C–5G). These were analysed 15 minutes after the commencement of the IVM application to ensure that the effects had equilibrated. […] The decay time constant for α GluClRs slowed from 40 ± 2 ms to 100 ± 3 ms (n = 6) and for αβ GluClRs from 17 ± 2 ms to 72 ± 4 ms (n = 6, Fig 5E). The increase in activation times were from 4.6 ± 0.7 ms to 19 ± 1 ms for α GluClRs and from 3.0 ± 0.3 ms to 10 ± 1 ms for the αβ heteromers (Fig 5F). […] A comparison of the magnitude changes of IPSC parameters was also made between the two receptor isoforms.
cDNAs encoding the α (avr-14b) (pcDNA 3.1+) or β (pUNIV) GluClR subunits of H. contortus were nuclear injected into oocytes (NASCO, WI USA) or transfected into HEK293AD cells (CellBank Australia) using a calcium phosphate-DNA co-precipitate method. […]

αβ (1:1) GluClRs = αβ (1:1) GluClRs (Haemonchus contortus, UniProt O46124+P91730); test: Single channel recording, outside-out patches, αβ (1:1) GluClRs; format: cell-based, H. contortus; conditions: 2 μM glutamate plus 5 nM IVM
Text: To explore whether a similar mechanism applies to β-containing GluClRs, we recorded single receptor currents in excised patches from cells transfected with either the α and β subunits (1:1) or the β subunit alone. […] By contrast, patches from cells transfected with the β subunit alone invariably opened to an amplitude of 0.4 pA (Fig 6C). Amplitude histograms confirmed two amplitude levels for αβ GluClRs and a single amplitude for the β GluClRs (Fig 6D). […] We infer that the αβ GluClRs that open to 0.7 pA likely contain a greater proportion of β subunits. This is consistent with β GluClRs having the smallest amplitude and α GluClRs having the greatest amplitude (1.8 pA) under similar recording conditions. The calculated conductance values for the corresponding amplitudes for αβ GluClRs was 15.2 pS and 8.9 pS and for the β GluClRs was 5.1 pS.
Single-channel currents were recorded from outside-out excised patches at a clamped potential of −70 mV. The single channel conductance was calculated by dividing the mean current by the net driving force at a clamped potential of ‐70 mV, after accounting for reversal and liquid junction potentials. Excised patches were continuously perfused via a gravity-fed double-barrelled glass tube, which contained extracellular bath solution containing (in mM), 140 NaCl, 5 KCl, 1 MgCl2, 2 CaCl2, 10 HEPES, and 10 D-glucose and titrated to pH 7.4. Glutamate and IVM were dissolved in this extracellular solution. Recording electrodes were pulled from borosilicate glass (G150F-3; Warner Instruments), coated with a silicone elastomer (Sylgard-184; Dow Corning) and heat-polished to a final tip resistance of 4–15 MΩ when filled with an intracellular solution containing (in mM) 145 CsCl, 2 MgCl2, 2 CaCl2, 10 HEPES, and 5 EGTA, pH 7.4. […] A 10 mM stock of IVM (Sigma-Aldrich) was dissolved in 100% DMSO and kept frozen at ‐20°C. Fresh working stocks of IVM at 5 nM were prepared by dissolving the appropriate quantity directly in extracellular solution. 100% DMSO when dissolved in extracellular solution alone at the same concentration as was present in working solutions containing 5 nM IVM had no effect on patches excised from cells transfected with GluClRs or from untransfected cells.
Currents were recorded using an Axopatch 200B amplifier (Molecular Devices), filtered at 5 kHz and digitized at 20 kHz using Clampex (pClamp 10 suite, Molecular Devices) via a Digidata 1440A digitizer.
Group data were analysed in SigmaPlot 13.0 using one-way ANOVAs, where p < 0.05 was taken as the significance threshold and expressed as mean ± SEM. Tests for normally distributed data are built into the SigmaPlot software. Confocal images were captured and analysed with Zen 2012 SP2 (Zeiss) software. Oocyte concentration-response data were fit to a Hill equation to obtain an EC50 and Hill co-efficient for each oocyte recording. These parameters were then averaged across multiple oocyte experiments of the same type. Single channel recordings were analysed in QuB software. […] Patches yielded between 30–250 individual active periods. […] The selected critical times eliminated periods of receptor desensitisation while retaining singe receptor active periods. Mean active period duration and intra-activation open probability was estimated from each patch. Group means were obtained by averaging across multiple patches for each recording condition.

[1] = system: homomeric α (avr-14b) GluClRs; conditions: cited from earlier work

Chain of αβ (1:1) GluClRs (P91730 19-432): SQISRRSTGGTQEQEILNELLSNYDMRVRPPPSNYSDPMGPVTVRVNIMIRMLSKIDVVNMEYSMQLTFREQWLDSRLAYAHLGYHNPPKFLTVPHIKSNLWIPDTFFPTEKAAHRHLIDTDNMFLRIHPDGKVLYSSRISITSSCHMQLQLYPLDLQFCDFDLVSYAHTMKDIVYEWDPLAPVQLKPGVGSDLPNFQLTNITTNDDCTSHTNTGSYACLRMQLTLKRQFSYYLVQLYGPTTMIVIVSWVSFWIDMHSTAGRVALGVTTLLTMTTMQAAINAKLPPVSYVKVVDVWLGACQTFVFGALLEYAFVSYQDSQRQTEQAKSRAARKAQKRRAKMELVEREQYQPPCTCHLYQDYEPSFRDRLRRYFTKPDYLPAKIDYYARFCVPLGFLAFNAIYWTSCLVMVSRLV
Chain of αβ (1:1) GluClRs (O46124 entry or part of it): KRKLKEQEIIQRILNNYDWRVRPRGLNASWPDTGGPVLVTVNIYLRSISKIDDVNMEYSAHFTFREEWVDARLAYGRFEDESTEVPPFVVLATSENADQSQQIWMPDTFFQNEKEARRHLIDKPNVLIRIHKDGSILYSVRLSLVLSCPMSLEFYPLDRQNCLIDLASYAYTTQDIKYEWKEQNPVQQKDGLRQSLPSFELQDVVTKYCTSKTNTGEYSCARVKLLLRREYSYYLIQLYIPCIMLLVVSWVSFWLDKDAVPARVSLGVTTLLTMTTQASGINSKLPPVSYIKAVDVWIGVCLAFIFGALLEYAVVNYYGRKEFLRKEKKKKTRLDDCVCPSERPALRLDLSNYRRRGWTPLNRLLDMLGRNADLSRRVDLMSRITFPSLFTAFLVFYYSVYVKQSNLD

CC[C@H](C)[C@H]1O[C@]2(CC[C@@H]1C)C[C@@H]1C[C@@H](C/C=C(\C)[C@@H](O[C@H]3C[C@H](OC)[C@@H](O[C@H]4C[C@H](OC)[C@@H](O)[C@H](C)O4)[C@H](C)O3)[C@@H](C)/C=C/C=C3\CO[C@@H]4[C@H](O)C(C)=C[C@@H](C(=O)O1)[C@]34O)O2 [IVM, Ivermectin]
tonic current fitted time constant (α and αβ (1:1) GluClRs): 483 ± 72 s | tonic current mean amplitude (α and αβ (1:1) GluClRs): 304 ± 54 pA | increase in mean active period duration compared to 2 μM glutamate alone (αβ (1:1) GluClRs): over 20 fold | increase in mean active period duration compared to 3 mM glutamate (αβ (1:1) GluClRs): 6 fold | intra-activation open probability (PO) (αβ (1:1) GluClRs): 0.83 ± 0.02 | mean active period duration (αβ (1:1) GluClRs; pooled): 876 ± 178 ms | time over which single receptor active periods increase in duration after exposure [1]: 1 to 2 min

From paper PMC6368337, “GluClR-mediated inhibitory postsynaptic currents reveal targets for ivermectin and potential mechanisms of ivermectin resistance” (PLoS Pathogens, 2019)
